Entries after “also recorded” stand apart in the source; their conditions may differ.
What was measured:
Type in all cases: cell-based
RORγ (NR1F3) = molecular target: T1, RORγ (NR1F3) (Homo sapiens, UniProt P51449); assay: Gal4-RORγ hybrid reporter gene assay (off-target profiling); conditions: compared with T0901317
T1 construct: coding for the hinge region, and LBD of the canonical isoform of the respective nuclear receptor; expressed in transfected cells; host or cells: HEK293T
T1 sequence (P51449 269-508 limits assumed): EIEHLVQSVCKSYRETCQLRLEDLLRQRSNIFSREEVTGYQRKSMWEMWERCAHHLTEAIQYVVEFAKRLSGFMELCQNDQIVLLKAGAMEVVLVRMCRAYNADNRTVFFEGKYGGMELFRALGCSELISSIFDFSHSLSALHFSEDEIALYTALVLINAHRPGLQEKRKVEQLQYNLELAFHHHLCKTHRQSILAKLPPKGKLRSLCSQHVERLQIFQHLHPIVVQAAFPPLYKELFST
Excerpt: (§1) For the hybrid reporter gene assays, the previously reported Gal4-fusion receptor plasmids pFA-CMV-hRORα-LBD, pFA-CMV-hRORβ-LBD, pFA-CMV-hRORγ-LBD, pFA-CMV-hLXRα-LBD, pFA-CMV-hLXRβ-LBD, pFA-CMV-hFXR-LBD, pFA-CMV-hPXR-LBD, and pFA-CMV-hRXRα-LBD, coding for the hinge region, and LBD of the canonical isoform of the respective nuclear receptor were used. pFR-Luc (Stratagene) was used as the reporter plasmid, and pRL-SV40 (Promega) was used in all assays for the normalization of transfection efficiency and cell growth. pECE-SV40-Gal4-VP16 was a gift from Lea Sistonen (Addgene plasmid #71728). The LXR-responsive reporter ABCA1-pGL3 was used for the full-length reporter gene assay.
(§2) The day before transfection, HEK293T cells were seeded in 96-well plates (4 × 10^4 cells/well). Before transfection, the medium was changed to Opti-MEM without any supplements. […] Luminescence was measured with a Spark 10 M luminometer (Tecan Deutschland GmbH). […] EC50/IC50 values and the standard errors thereof were calculated with the mean fold activation values by OriginPro, Version 2025 (OriginLab Corporation, Northampton, MA, USA), fitting a dose–response curve with a variable Hill slope (Levenberg–Marquardt algorithm). […]

FXR (NR1H4) = molecular target: T2, FXR (NR1H4) (Homo sapiens, UniProt Q96RI1); assay: Gal4-FXR hybrid reporter gene assay (off-target profiling); conditions: compared with T0901317
T2 construct: coding for the hinge region, and LBD of the canonical isoform of the respective nuclear receptor; expressed in transfected cells; host or cells: HEK293T
T2 sequence (Q96RI1 262-486 limits assumed): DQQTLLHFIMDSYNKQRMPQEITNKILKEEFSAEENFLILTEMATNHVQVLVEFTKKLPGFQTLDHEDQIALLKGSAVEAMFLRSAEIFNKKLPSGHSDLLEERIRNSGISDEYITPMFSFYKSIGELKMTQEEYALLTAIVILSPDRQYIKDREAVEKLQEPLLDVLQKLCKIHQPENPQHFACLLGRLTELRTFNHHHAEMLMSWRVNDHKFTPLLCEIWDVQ
Excerpt: as §1, §2

HepG2 cells = assay: lipolysis assay after steatosis induction with oleic and palmitic acid (Oil Red O); conditions: 30 μM, 72 h; HepG2 pretreated 24 h with oleic acid (66.7 μM) and palmitic acid (33.3 μM)
Protocol: HepG2 cells were seeded in collagen-coated 96-well plates at a density of 10^4 cells per well and incubated for 24 h. For the lipolytic mode, the cells were pretreated for additional 24 h with 66.7 μM oleic acid and 33.3 μM palmitic acid in culture medium with 1% bovine serum albumin (BSA). The cells were then treated with DMSO (0.1%) alone or in combination with test compounds in the culture medium. After 72 h, the cells were washed with PBS (2 × 50 μL) and fixed with 10% formalin solution (50 μL) for 15 min. After removal of the fixative, the cells were washed with H2O (2 × 50 μL), followed by 50 μL of 60% iPrOH and incubated with 50 μL Oil Red O solution (0.3% in 60% iPrOH) for 10 min to stain neutral lipids. The cells were washed quickly with 50 μL of 60% iPrOH and 2 × 50 μL of PBS. Microscopic images were taken using a 40x objective on a BZ-X810 microscope (KEYENCE, Frankfurt, Germany). Images were analyzed using ImageJ software (v1.54) according to a literature method.

RXRα = molecular target: T3, RXRα (Homo sapiens, UniProt P19793); assay: Gal4-RXRα hybrid reporter gene assay (control); conditions: 30 μM; alone and in competition with bexarotene 1 μM
T3 construct: coding for the hinge region, and LBD of the canonical isoform of the respective nuclear receptor; expressed in transfected cells; host or cells: HEK293T
T3 sequence (P19793 227-458 limits assumed): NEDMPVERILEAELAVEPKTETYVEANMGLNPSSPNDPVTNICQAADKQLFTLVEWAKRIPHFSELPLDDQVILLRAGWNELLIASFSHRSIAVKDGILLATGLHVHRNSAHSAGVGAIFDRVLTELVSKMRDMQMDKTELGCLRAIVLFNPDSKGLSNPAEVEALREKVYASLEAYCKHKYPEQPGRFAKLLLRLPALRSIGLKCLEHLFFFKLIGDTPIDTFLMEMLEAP
Excerpt: as §1
as §2, with “cells/well).” for “cells/well). Before transfection, the medium was changed to Opti-MEM without any supplements.”
(§3) mediated inhibition of the LXR/RXR heterodimer. […] (c) Quantification of LXR expression on mRNA level in HEK293T and HepG2 cell lines using qRT -PCR. Expression levels were calculated according to the 2 -ΔCt method relative to GAPDH. […]

Gal4-VP16 = Gal4-VP16 control experiment (ligand-independent transcriptional activator); conditions: 30 μM; vs 0.1% DMSO
Excerpt: as §1
as §2, with “cells/well).” for “cells/well). Before transfection, the medium was changed to Opti-MEM without any supplements.”
as §3

Q: With CCN(C(=O)c1ccccc1)c1ccc(C(O)(C(F)(F)F)C(F)(F)F)cc1 [Compound 1, N-Ethyl-N-(4-[1,1,1,3,3,3-hexafluoro-2-hydroxypropan-2-yl]phenyl)benzamide] as the compound, how does the RORγ activity (RORγ (NR1F3)) read?
A: Its RORγ activity is “reduced activity; also recorded: weaker inverse RORγ agonist”.

Q: What about the FXR activity (FXR (NR1H4)) of the same compound?
A: Its FXR activity is “no activity; also recorded: did not affect”.

Q: What does the source list for CS(=O)(=O)c1cccc(-c2ccc(CN(Cc3cccc(C(F)(F)F)c3Cl)CC(c3ccccc3)c3ccccc3)cc2)c1 [Compound 3, N-(2-Chloro-3-[trifluoromethyl]benzyl)-N-([3′-{methylsulfonyl}-{1,1′-biphenyl}-4-yl]methyl)-2,2-diphenylethan-1-amine]?
A: lipolytic, antisteatotic activity (HepG2 cells): displayed lipolytic, antisteatotic activity; also recorded: stimulated lipolysis; RXR modulation (RXRα): neither activated RXR nor competed with literature RXR agonist bexarotene; influence on Gal4-VP16-mediated luciferase reporter expression (Gal4-VP16): no influence

Source: paper PMC12621175, “Scaffold Fusion and SAR Transfer with a Chemical Language Model Generates Novel Liver X Receptor Modulators” (Journal of Medicinal Chemistry, 2025)
